These results are taken from patent publication US11254688B2 (Boehringer Ingelheim International GmbH, priority 2018, dated 2022).

In this assay the target is T1, hGOAT (Homo sapiens, UniProt Q96T53).
T1 construct: expressed in transfected cells; host or cells: HEK293 (Hek293 hGOAT/PPGhrl Clone #1B8)
T1 sequence (Q96T53 1-435): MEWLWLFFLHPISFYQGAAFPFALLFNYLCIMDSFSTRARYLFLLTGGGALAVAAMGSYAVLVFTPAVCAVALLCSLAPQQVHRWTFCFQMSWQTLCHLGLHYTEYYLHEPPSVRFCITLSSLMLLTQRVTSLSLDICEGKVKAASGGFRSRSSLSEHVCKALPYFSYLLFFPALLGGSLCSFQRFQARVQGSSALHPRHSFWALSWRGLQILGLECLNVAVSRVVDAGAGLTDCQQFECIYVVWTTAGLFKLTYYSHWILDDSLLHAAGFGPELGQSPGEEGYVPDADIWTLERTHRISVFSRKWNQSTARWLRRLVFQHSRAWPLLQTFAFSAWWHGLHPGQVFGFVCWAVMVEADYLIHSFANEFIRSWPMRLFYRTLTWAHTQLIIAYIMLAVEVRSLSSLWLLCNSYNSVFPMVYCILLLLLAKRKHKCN
Put plainly: Determination of hGOAT activity in HEK293 cells after incubation with test compound (acyl-ghrelin ELISA). Format: cell-based. The note with it: HEK293 cells stably transfected with preproghrelin and human GOAT; octanoate-BSA 100 μM; 5 hours incubation; acyl-ghrelin in medium by ELISA; 8 compound concentrations. On the procedure: Determination of hGOAT Activity in HEK293 Cells after Incubation with Test Compound
HEK293 cells stably transfected with two expression vectors, one coding for preproghrelin cDNA and a second for the expression of human GOATcDNA are used as a cellular model. After feeding the cells with octanoic acid for 5 hours, acyl-ghrelin is measured in cell culture medium by an ELISA procedure.
Cellline: Hek293 hGOAT/PPGhrl Clone #1B8Sodium octanoate, Sigma, Cat.-No. C5038
BD Poly-D-Lysin 384-well Plates, black-clear polystyrene BD Bioscience Cat.-No. […] ELISA human acylated Ghrelin Kit purchased from Bertin Pharman (detailed composition of buffers e.g. wash-puffer, ELISA buffer not known)
Cells are plated with a density of 5000 cells/well in 384-well poly-D-lysin plates and incubated for 1 day at 37° C., 5% CO2 in DMEM medium, 10% FCS, 1×NEAA, Puromycin (0.5 μg/ml) and G418 (1 mg/ml). Then the medium is changed to a identical medium without FCS and containing Octanoate-BSA (final concentration 100 μM each) and compound in DMSO (final DMSO concentration 0,3%). After incubation for 5 hours acylghrelin in the medium is measured by ELISA.
The medium sample is diluted 1:25 in Elisa buffer, a 25 μl aliquot is transferred to a 384-well ELISA plate previously washed 4 times with 100 μL wash buffer, and 25 μl tracer-solution is added. After incubation overnight (˜20 h) at 4° C. temperature the plate is washed 4 times with 100 μl wash-buffer per well. Finally 50 μl Ellman's reagent is added to each well and the plate is incubated in the dark for 20 minutes. The absorbance is measured at 405 nm in an Envision multilabel reader and the amount of acylated ghrelin is calculated according to a acylated ghrelin standard curve provided in the same plate.
The analysis of the data is performed by calculation of the percentage of acyl-ghrelin produced in the presence of test compound compared to the amount of acyl-ghrelin produced in the vehicle control samples. An inhibitor of the GOAT enzyme will give values between 100% CTL (no inhibition) and 0% CTL (complete inhibition).
IC50 values are calculated with Assay Explorer or other suited software based on curve fitting of results of 8 different compound concentrations.
As usually defined, the IC50 is the concentration at which inhibition is half-maximal. A higher IC50 goes with weaker potency. For `Cc1nc2nonc2c(N)c1Cc1ccc(OCC2CC2(F)F)nc1` (stereo in doubt) [Compound 21.13, 6-[(6-{[(1R)-2,2-Difluorocyclopropyl]methoxy}pyridin-3-yl)methyl]-5-methyl-[1,2,5]oxadiazolo[3,4-b]pyridin-7-amine], half-maximal inhibition (IC50) required 0.718 nM.

As for `Cc1nc2nonc2c(N)c1Cc1ccc(Br)cc1` [Compound 1.1, 6-[(4-Bromophenyl)methyl]-5-methyl-[1,2,5]oxadiazolo[3,4-b]pyridin-7-amine], the IC50 came out at 0.225 nM.

On to `Cc1nc2nonc2c(N)c1Cc1ccc(OC(F)(F)F)cc1` [Compound 1.2, 5-Methyl-6-{[4-(trifluoromethoxy)phenyl]methyl}-[1,2,5]oxadiazolo[3,4-b]pyridin-7-amine], for which half-maximal inhibition (IC50) required 0.387 nM.

On to `Cc1nc2nonc2c(N)c1Cc1ccc(C(F)(F)F)cc1` [Compound 1.3, 5-Methyl-6-{[4-(trifluoromethyl)phenyl]methyl}-[1,2,5]oxadiazolo[3,4-b]pyridin-7-amine], for which the half-maximal inhibitory concentration (IC50) worked out at 0.294 nM.

`Cc1nc2nonc2c(N)c1Cc1ccc(I)cc1` [Compound 1.4, 6-[(4-Iodophenyl)methyl]-5-methyl-[1,2,5]oxadiazolo[3,4-b]pyridin-7-amine]: 0.127 nM corresponded to half-maximal inhibition (IC50). This IC50 is about 2.3-fold lower than that of the compound before.

`COc1cc(OC(F)(F)F)ccc1Cc1c(C)nc2nonc2c1N` [Compound 2.1, 6-{[2-Methoxy-4-(trifluoromethoxy)phenyl]methyl}-5-methyl-[1,2,5]oxadiazolo[3,4-b]pyridin-7-amine] had an IC50 of 0.092 nM.

`COc1cc(C(F)(F)F)ccc1Cc1c(C)nc2nonc2c1N` [Compound 2.2, 6-{[2-Methoxy-4-(trifluoromethyl)phenyl]methyl}-5-methyl-[1,2,5]oxadiazolo[3,4-b]pyridin-7-amine]: the IC50 stood at 0.066 nM. This IC50 and that of the compound before are within 1.5-fold of each other.

In turn, `COc1cc(Br)ccc1Cc1c(C)nc2nonc2c1N` [Compound 2.3, 6-[(4-Bromo-2-methoxyphenyl)methyl]-5-methyl-[1,2,5]oxadiazolo[3,4-b]pyridin-7-amine] yielded an IC50 of 0.06 nM.

`COc1cc(C#N)ccc1Cc1c(C)nc2nonc2c1N` [Compound 2.4, 4-({7-Amino-5-methyl-[1,2,5]oxadiazolo[3,4-b]pyridin-6-yl}methyl)-3-methoxybenzonitrile]: inhibition was half-maximal at 0.133 nM (IC50).

For `COc1cc(Cc2c(C)nc3nonc3c2N)ccc1C#N` [Compound 2.5, 4-({7-Amino-5-methyl-[1,2,5]oxadiazolo[3,4-b]pyridin-6-yl}methyl)-2-methoxybenzonitrile], the midpoint of inhibition, the IC50, lay at 0.402 nM.

Compound `Cc1nc2nonc2c(N)c1Cc1cccc(Br)c1` [Compound 2.6, 6-[(3-Bromophenyl)methyl]-5-methyl-[1,2,5]oxadiazolo[3,4-b]pyridin-7-amine] gave an IC50 of 1.4 nM.

As to `Cc1nc2nonc2c(N)c1Cc1ccc(F)cc1F` [Compound 2.7, 6-[(2,4-Difluorophenyl)methyl]-5-methyl-[1,2,5]oxadiazolo[3,4-b]pyridin-7-amine], inhibition was half-maximal at 0.353 nM (IC50).

`Cc1nc2nonc2c(N)c1Cc1ccc(C#N)cc1` [Compound 2.8, 4-({7-Amino-5-methyl-[1,2,5]oxadiazolo[3,4-b]pyridin-6-yl}methyl)benzonitrile] came in with an IC50 of 0.416 nM.

In turn, `Cc1nc2nonc2c(N)c1Cc1ccc(F)c(C#N)c1` [Compound 2.9, 5-({7-Amino-5-methyl-[1,2,5]oxadiazolo[3,4-b]pyridin-6-yl}methyl)-2-fluorobenzonitrile] yielded an IC50 of 2.01 nM. Against the preceding compound, the IC50 is about 4.8-fold higher.

In turn, `COC(=O)c1ccc(Cc2c(C)nc3nonc3c2N)cc1` [Compound 2.10, Methyl 4-({7-amino-5-methyl-[1,2,5]oxadiazolo[3,4-b]pyridin-6-yl}methyl)benzoate] registered a half-inhibitory concentration (IC50) of 0.132 nM.

The compound `COc1ncccc1Cc1c(C)nc2nonc2c1N` [Compound 2.11, 6-[(2-Methoxypyridin-3-yl)methyl]-5-methyl-[1,2,5]oxadiazolo[3,4-b]pyridin-7-amine] returned a 50% inhibitory concentration (IC50) of 1.07 nM. This IC50 is about 8.1-fold higher than that of the compound before.

The compound `Cc1nc2nonc2c(N)c1Cc1ccc(S(C)(=O)=O)cc1` [Compound 2.12, 6-[(4-Methanesulfonylphenyl)methyl]-5-methyl-[1,2,5]oxadiazolo[3,4-b]pyridin-7-amine] yielded an IC50 of 0.49 nM.

For the compound `Cc1nc2nonc2c(N)c1Cc1cccc2c1cnn2C` [Compound 2.13, 5-Methyl-6-[(1-methyl-1H-indazol-4-yl)methyl]-[1,2,5]oxadiazolo[3,4-b]pyridin-7-amine], the midpoint of inhibition, the IC50, lay at 0.66 nM.

As for `Cc1nc2nonc2c(N)c1Cc1ccc(OC(F)(F)F)c(Br)c1` [Compound 2.14, 6-{[3-Bromo-4-(trifluoromethoxy)phenyl]methyl}-5-methyl-[1,2,5]oxadiazolo[3,4-b]pyridin-7-amine], inhibition was half-maximal at 0.096 nM (IC50).

Compound `Cc1nc2nonc2c(N)c1Cc1ccc(CC#N)cc1` [Compound 2.15, 2-[4-({7-Amino-5-methyl-[1,2,5]oxadiazolo[3,4-b]pyridin-6-yl}methyl)phenyl]acetonitrile] had an IC50 of 0.887 nM.

`Cc1nc2nonc2c(N)c1Cc1ccccc1` [Compound 2.16, 6-Benzyl-5-methyl-[1,2,5]oxadiazolo[3,4-b]pyridin-7-amine]: the half-maximal inhibitory concentration (IC50) was 3.03 nM.

Regarding `Cc1nc2nonc2c(N)c1C(=O)c1ccc(C(F)(F)F)cc1` [Compound 3.1, 5-Methyl-6-[4-(trifluoromethyl)benzoyl]-[1,2,5]oxadiazolo[3,4-b]pyridin-7-amine], the concentration for half-maximal inhibition (IC50) stood at 5.83 nM.

On to `Cc1nc2nonc2c(N)c1Cc1ccc(F)c(F)c1` [Compound 4.0, 6-[(3,4-Difluorophenyl)methyl]-5-methyl-[1,2,5]oxadiazolo[3,4-b]pyridin-7-amine], for which half-maximal inhibition (IC50) required 0.494 nM.

In turn, `Cc1nc2nonc2c(N)c1Cc1ccc(Cl)c(Cl)c1` [Compound 4.1, 6-[(3,4-Dichlorophenyl)methyl]-5-methyl-[1,2,5]oxadiazolo[3,4-b]pyridin-7-amine] gave an IC50 of 0.246 nM.

As to `Cc1nc2nonc2c(N)c1Cc1cccc(F)c1` [Compound 4.2, 6-[(3-Fluorophenyl)methyl]-5-methyl-[1,2,5]oxadiazolo[3,4-b]pyridin-7-amine], it took 2.26 nM to reach half-maximal inhibition (IC50).

The compound `COc1ccc(Cc2c(C)nc3nonc3c2N)cn1` [Compound 4.3, 6-[(6-Methoxypyridin-3-yl)methyl]-5-methyl-[1,2,5]oxadiazolo[3,4-b]pyridin-7-amine] gave an IC50 of 1.58 nM.

For the compound `Cc1nc2nonc2c(N)c1Cc1ccc(F)nc1` [Compound 4.4, 6-[(6-Fluoropyridin-3-yl)methyl]-5-methyl-[1,2,5]oxadiazolo[3,4-b]pyridin-7-amine], the 50% inhibitory concentration (IC50) is 4.06 nM. Compared with the last compound, the IC50 is about 2.6-fold higher.

Consider `Cc1nc2nonc2c(N)c1Cc1ccc(C(F)(F)F)nc1` [Compound 4.5, 5-Methyl-6-{[6-(trifluoromethyl)pyridin-3-yl]methyl}-[1,2,5]oxadiazolo[3,4-b]pyridin-7-amine], for which the 50% inhibitory concentration (IC50) turned out to be 1.59 nM.

`Cc1nc2nonc2c(N)c1Cc1ccc(C#N)nc1` [Compound 4.6, 5-({7-Amino-5-methyl-[1,2,5]oxadiazolo[3,4-b]pyridin-6-yl}methyl)pyridine-2-carbonitrile] gave an IC50 of 3.1 nM.

The compound `Cc1nc2nonc2c(N)c1Cc1ccc(C(C)(C)C)nc1` [Compound 4.7, 6-[(6-tert-butylpyridine-3-yl)methyl]-5-methyl-[1,2,5]oxadiazolo[3,4-b]pyridin-7-amine] registered a 50% inhibitory concentration (IC50) of 0.124 nM. This IC50 is about 25-fold lower than that of the compound before.

In turn, `Cc1nc2nonc2c(N)c1Cc1ccc(C2(C#N)CC2)nc1` [Compound 4.8, 1-[5-({7-Amino-5-methyl-[1,2,5]oxadiazolo[3,4-b]pyridin-6-yl}methyl)pyridin-2-yl]cyclopropane-1-carbonitrile] returned an IC50 of 1.41 nM. Against the preceding compound, the IC50 is about 11-fold higher.

On to `Cc1nc2nonc2c(N)c1Cc1cccn2c(C)nnc12` [Compound 4.9, 5-Methyl-6-({3-methyl-[1,2,4]triazolo[4,3-a]pyridin-8-yl}methyl)-[1,2,5]oxadiazolo[3,4-b]pyridin-7-amine], for which the half-inhibitory concentration (IC50) is 4.01 nM.

`Cc1nc2nonc2c(N)c1Cc1cccn2c(C(F)(F)F)nnc12` [Compound 4.10] registered an IC50 of 5.36 nM. This IC50 and that of the compound before are within 1.5-fold of each other.
